The results in this text go back to patent publication US20080057107A1, “COMPOSITIONS FOR VAGINAL TREATMENT” (Kimberly-Clark Worldwide, Inc., priority 2004, published 2008).

Test [1] deals with Normal human vaginal epithelial cells. The test is described as follows: Periodic acid Schiff (PAS) assay for glycogen-positive cells. The class given is cell-based. To be noted: 10^-5 M, five days after treatment, manually counted, vs control medium. How it is done: (§1) Normal human vaginal epithelial cells from Clonetics (NHVE 5164) were subcultured in basal PrEBM (Clonetics CC 3165) within 96 well plates at 37° C., 5% CO2. Cells were then exposed to medium containing mannose-6-phosphate (Sigma, M3655) at a concentration of 10^−5 M. Control groups received culture medium without mannose-6-phosphate. Cell proliferation was examined three days later and glycogen positive cells were detected five days after mannose-6-phosphate treatment.
A periodic acid Schiff (PAS) assay was used to detect glycogen levels. Before the assay, cells were washed with PBS and fixed with a 10 vol % Formalin/ethanol solution for 1 hour at room temperature, followed by continuous rinsing with deionized (DI) water for 1 minute. A Harleco® PAS Assay Kit (from EM Science 64945/43) was used for glycogen detection. The basic principle is that the hydroxy groups on the glycogen units were first oxidized into aldehyde groups by periodic acid, and the aldehyde groups reacted with Schiff's agent to produce a red colorant. The specific assay operations were all done at room temperature as follows: • 1. Periodic acid reagent was added to the well/chamber and allowed to stand for 10 minutes. • 2. […] The numbers of glycogen-stained positive cells were manually counted under microscope. The data was analyzed by student's t test, and p<0.05 was considered significant. […]

Test [2] shares this test system. The test is described as follows: Cell proliferation, CellTiter 96 Aqueous One Solution. To be noted: 10^-5 M, three days after treatment, absorbance at 490 nm, vs control medium, p<0.05. The class given is cell-based. How it is done:
as §1, with “treatment. Cell proliferation was examined by using CellTiter 96 Aqueous One Solution from Promega (#TB245). Twenty μl of the reagent was added to each well. The plates were returned to cell culture incubator for 3 hours. The absorbance in each well was measured at 490 nm with a microtiter reader.” for “treatment.”

With `O=C[C@@H](O)[C@@H](O)[C@H](O)[C@H](O)COP(=O)(O)O` [mannose-6-phosphate], the “number of glycogen-positive cells” value in test [1] was “significantly higher”. Also, the vaginal cell proliferation result in test [2] is listed as “significantly (p<0.05) increased”.
